Test results from patent US11926625B2, “HPK1 antagonists and uses thereof” (Nimbus Saturn, Inc., priority 2021, dated 2024).

Target: T1, HPK1 (Homo sapiens, UniProt Q92918)
T1 construct: purchased Invitrogen
Assay: HPK1 biochemical enzyme assay (microfluidic mobility shift, Caliper)
Settings: 1.5 nM HPK1 (Invitrogen), 1 mM ATP, 30 min preincubation, 60 min at RT, top concentration 3 μM; read-out: HPK1 1000UMATP caliper IC50
Procedure, shortened: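 Mobility shift assay with 1.5 nM HPK1 at pH 7.4; compounds in ten-point titration (top final 3 μM) preincubated 30 min with enzyme. Reaction started with 1 mM ATP and 1 μM substrate, 5 mM MgCl2 final, run 60 min at RT before termination and readout.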

T1 sequence (Q92918 whole entry): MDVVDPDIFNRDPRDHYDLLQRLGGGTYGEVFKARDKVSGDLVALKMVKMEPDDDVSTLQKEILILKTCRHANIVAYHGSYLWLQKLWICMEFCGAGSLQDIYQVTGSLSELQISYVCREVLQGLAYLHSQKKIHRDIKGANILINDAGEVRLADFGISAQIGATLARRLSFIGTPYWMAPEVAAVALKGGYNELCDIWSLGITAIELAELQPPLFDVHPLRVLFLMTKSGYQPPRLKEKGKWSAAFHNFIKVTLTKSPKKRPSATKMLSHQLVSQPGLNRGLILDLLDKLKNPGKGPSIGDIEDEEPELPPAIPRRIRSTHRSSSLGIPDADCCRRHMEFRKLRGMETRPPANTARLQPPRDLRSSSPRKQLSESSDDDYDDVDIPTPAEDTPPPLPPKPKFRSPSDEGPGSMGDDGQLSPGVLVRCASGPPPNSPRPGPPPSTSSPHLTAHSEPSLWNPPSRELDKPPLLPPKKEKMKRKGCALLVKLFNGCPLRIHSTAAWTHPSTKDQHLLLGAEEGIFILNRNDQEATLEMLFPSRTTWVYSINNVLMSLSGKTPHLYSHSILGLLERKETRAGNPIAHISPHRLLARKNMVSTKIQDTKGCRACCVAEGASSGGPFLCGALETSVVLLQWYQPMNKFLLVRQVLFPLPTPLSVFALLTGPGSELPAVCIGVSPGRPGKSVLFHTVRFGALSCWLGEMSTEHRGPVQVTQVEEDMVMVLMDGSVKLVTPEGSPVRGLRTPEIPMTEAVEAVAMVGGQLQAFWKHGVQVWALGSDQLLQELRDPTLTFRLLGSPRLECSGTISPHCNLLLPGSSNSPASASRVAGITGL

IC50: 1 to 5 µM
SMILES: CN1CCN(c2ccc(Nc3ccc(-c4ccnc(N5CCOCC5)n4)c4c3C(=O)NC4)nc2)CC1 [Compound I-51, 7-[[5-(4-methylpiperazin-1-yl)-2-pyridyl]amino]-4-(2-morpholinopyrimidin-4-yl)isoindolin-1-one]
